Data as given in patent US20250171743A1, “HUMAN TOOTH ORGANOIDS” (Katholieke Universiteit Leuven, priority 2022, published 2025).

Tests used:
[1] = tested on: tooth organoids; experiment: Effect of TGFβ and TGFβ receptor inhibitor on differentiation of organoids switched to MIM; type: cell-based, human
Excerpt: The above analyses exposed the enrichment of TGFβ pathway processes in tooth organoids subjected to ameloblast differentiation, in line with the proposed key role of TGFβ in amelogenesis. To assess the impact of the TGFβ pathway, organoids grown in TOM (P5) were switch to MIM with or without TGFβ (FIG. 6a).
During tooth root development, Hertwig's epithelial root sheath (HERS), from which epithelial cell rests of Malassez is eventually derived, undergoes EMT to develop to participate in periodontal ligament formation. It has previously been proposed that this EMT process is regulated by TGFβ, thereby triggering HERS/epithelial cell rests of Malassez cells to switch phenotype toward periodontal ligament cells.
Organoids (or dissociated dental follicle) were cultured in mineralization-inducing medium (MIM; Table 3; time schedule, see FIG. 4a and FIG. 10d) as described above. Recombinant human TGFβ1 (10 ng/ml; R&D) and the selective TGFβ receptor 1/2 inhibitor LY2109761 (5 μM; Selleckchem) were added when indicated.
(§1) Primary dental follicle tissue, organoids and assembloid were fixed in 4% PFA for 1h, embedded in paraffin, and sections subjected to hematoxylin and eosin (H&E), immunofluorescence or ARS staining. Antigen retrieval (10 mM citrate, pH6) and permeabilization (0.1% Triton X-100; Sigma-Aldrich) were performed. After incubation with primary and secondary antibodies (Table 5), sections were mounted with Vectashield (DAPI; Vector Laboratories) or DPX mountant (Sigma-Aldrich). Analysis was done using a Leica DM5500 epifluorescence microscope or a Zeiss Axioimager epifluorescence microscope. ImageJ software was used to quantify immunoreactive signal intensity and the ‘corrected total organoid fluorescence’ (CTOF) (=integrated density−(area of organoid×mean fluorescence of background readings).
(§2) RNA was extracted from dissociated dental follicle, organoids and assembloids using the GenElute Mammalian Total RNA Miniprep Kit (Sigma-Aldrich) according to the manufacturer's instructions. RNA was reverse-transcribed (RT) using the Superscript III First-Strand Synthesis Supermix (Thermo Fisher Scientific) and the resultant cDNA samples were analysed with SYBR Green-based quantitative PCR (qPCR) using the StepOnePlus Real-Time PCR System (AB Applied Biosystems). Forward and reverse primers (Table 6) were designed using PrimerBank and PrimerBlast. Glyceraldehyde-3-phosphate dehydrogenase (GAPDH) was included as housekeeping gene. Relative gene expression levels were calculated as ΔCt (Ct target−Ct housekeeping gene) and compared to control (see figure legends).

[2] = tested on: assembloids; experiment: Assembloids (organoid-derived epithelial cells plus DPSCs) cultured in TOM+αMEM with TGFβ receptor inhibitor; type: cell-based, human; conditions: inhibitor 5 μM in TOM+αMEM
Procedure: It was chosen to use DPSCs to mimic early stages of tooth development in which DPSC-derived odontoblasts are in close contact with ameloblasts. The DPSCs, isolated, grown and characterized using well-defined standard protocols, were combined with organoid-derived epithelial stem cells in a layered approach, thereby forming composite organoids (assembloids) which were cultured in a mixture of TOM and the DPSC growth medium αMEM (FIG. 6d).
Whereas ODAM is not present in the straight (pure) epithelial organoids cultured in TOM (see above and FIG. 12c), it is expressed in the assembloids (FIG. 6d). This induction is not due to the addition of αMEM to TOM (FIG. 12c). […]
Primary dental follicle tissue, organoids and assembloid were fixed in 4% PFA for 1h, embedded in paraffin, and sections subjected to hematoxylin and eosin (H&E), immunofluorescence or ARS staining. […] ImageJ software was used to quantify immunoreactive signal intensity and the ‘corrected total organoid fluorescence’ (CTOF) (=integrated density−(area of organoid×mean fluorescence of background readings).
RNA was extracted from dissociated dental follicle, organoids and assembloids using the GenElute Mammalian Total RNA Miniprep Kit (Sigma-Aldrich) according to the manufacturer's instructions. […] Relative gene expression levels were calculated as ΔCt (Ct target−Ct housekeeping gene) and compared to control (see figure legends).

[3] = tested on: human dental follicle; experiment: Organoid formation from dissociated dental follicle; essentiality of medium factors assessed by omitting; type: cell-based; conditions: individual factor omitted from medium; P0, day 14 (FIG. 7a)
Excerpt: To develop epithelial organoids starting from human tooth, the dental follicle, known to encompass a large mesenchymal component but also the small epithelial epithelial cell rests of Malassez compartment, was isolated from unerupted third molars (wisdom teeth) extracted from adolescent patients (FIG. 1a). After tissue dissociation, the epithelial-mesenchymal cell mixture, comprising single cells and cell clusters, was embedded in Matrigel and cultured in a precisely defined medium. Organoids are typically established using a cocktail of growth and regulatory factors active in the tissue's epithelial stem cell niche. In case niche signals are unresolved, factors with a key role in the tissue's embryonic development are applied. […] The starting point is a medium containing these factors as well as generic organoid growth factors (such as WNT activators, nicotinamide, BMP inhibitor and p38 MAPK inhibitor), and assessed the essentiality of individual factors by omitting. […] Eventually, this systematic evaluation led to defining an optimized medium (further referred to as tooth organoid medium or TOM; Table 1), allowing to develop organoid lines from dental follicle samples at 100% efficiency (Table 2).
Third molars, predominantly unerupted, were extracted from adolescent patients (Table 2) at the ‘Oral and Maxillo-Facial Surgery-Imaging & Pathology (OMFS-IMPATH)’ unit of University Hospitals (UZ) Leuven after informed consent. The study was approved by the Ethics Committee Research UZ/KU Leuven (13/0104U). For sample collection, the gingiva was pushed aside after which the bone was perforated and the third molars with associated dental follicles were carefully isolated (without the visually distinct gingiva). dental follicle tissue was diligently peeled from the tooth and collected in Eagle's Minimum Essential Medium (αMEM; Sigma-Aldrich) supplemented with 10% foetal bovine serum (FBS; Sigma-Aldrich), 1% penicillin-streptomycin (Gibco) and 0.5% fungizone (Amphotericin B; Gibco). Following short rinsing steps in 70% ethanol and phosphate-buffered saline (PBS; Gibco), tissue was minced into small (˜1 mm^2) fragments, and further dissociated using collagenase VI (3 mg/ml; Thermo Fisher Scientific) and dispase II (4 mg/ml; Sigma-Aldrich) for 2 h at 37° C., while regularly pipetting up and down. The single cells and few small cell clusters were collected through a 40 μm cell strainer (Corning) while removing the remaining larger and fibrous tissue fragments.
(§3) The dissociated dental follicle cell material was resuspended in a mixture of serum-free defined medium (SFDM; Thermo Fisher Scientific; Table 4) and growth factor-reduced Matrigel (Corning) in a 30:70 ratio, which was plated in 48-well plates at 20,000 cells per 20 μL drop. After solidification, tooth organoid medium (TOM; Table 1), unless indicated otherwise, was supplemented. ROCK inhibitor (RI; 10 μM; Merck Millipore) was added the first day of seeding (or passaging). Organoid cultures were kept at 37° C. in a 1.9% CO2 incubator, and medium was refreshed every 2 to 3 days, each time supplemented with fungizone (0.1%).

[4] = tested on: tooth organoids; experiment: EGF supplementation of tooth organoid cultures (TOM+EGF): proliferation and EMT; type: cell-based, human
Excerpt: To establish organoids from primary tissues, supplementation of EGF is generally found quintessential. […] In vivo, it is known that elevated EGF levels in the epithelial cell rests of Malassez compartment (as, for instance, occurring upon tooth movement, infection or trauma) activates epithelial cell rests of Malassez cell proliferation [Davis (2018) J. Vet. Dent. 35, 290-298]. […] It has been proposed that EMT induction in the epithelial cell rests of Malassez (as, for instance, occurring upon damaging tooth impact) enables the cells to migrate and eventually contribute to regeneration of neighbouring tissues [Davis (2018) J. Vet. Dent. 35, 290-298].
as §3, §1
as §2, with “Glyceraldehyde-3-phosphate dehydrogenase (GAPDH) was included as housekeeping gene.” left out

c1ccc(-c2nn3c(c2-c2ccnc4cc(OCCN5CCOCC5)ccc24)CCC3)nc1 [LY2109761, reference compound]
effect of TGFβ on ODAM and AMTN expression ([1]; inhibitor 5 μM added simultaneously with TGFβ in MIM): blocked
upregulated ODAM and AMTN expression in MIM ([1]; inhibitor 5 μM, without exogenous TGFβ): strongly reduced
AMTN expression in the assembloids [2]: reduced
ODAM protein expression in the assembloids [2]: completely abolished

Oc1ccc(-c2nc(-c3ccncc3)c(-c3ccc(F)cc3)[nH]2)cc1 [SB202190, reference compound]
need of the factor for efficient organoid formation [3]: needed for efficient organoid formation

NC(=O)c1cccnc1 [nicotinamide, reference compound]
need of the factor for efficient organoid formation [3]: needed for efficient organoid formation

FGF2
need of the factor for efficient organoid formation [3]: needed for efficient organoid formation

epidermal growth factor [EGF]
number of proliferating (KI67+) cells in the organoids ([4]; EGF 50 ng/ml to initiating cultures, P0, day 7): increased number
proliferation ([4]; EGF 50 ng/ml, P0, day 14): decline in proliferation
EMT / VIM expression in the organoids' border ([4]; EGF 50 ng/ml, P0, day 14, colocalized with CK5 or P63): induction of an EMT process
VIM+ cells after EGF exposure following growth and expansion in TOM ([4]; P5, day 14, also cell migration out of organoids): appearance of VIM^+ cells

insulin-like growth factor-1 [IGF1]
need of the factor for efficient organoid formation [3]: needed for efficient organoid formation

sonic hedgehog [SHH]
need of the factor for efficient organoid formation [3]: needed for efficient organoid formation

transforming growth factor-beta [TGFβ]
VIM expression in the epithelial (CK5+) organoids ([1]; MIM with TGFβ): further increased
AMTN gene expression ([1]; MIM with TGFβ 10 ng/ml, RT-qPCR): increased expression
expression of periodontal ligament-specific genes POSTN and COL3A1 ([1]; MIM with TGFβ, RT-qPCR): significantly stimulated
ODAM expression (immunofluorescence) ([1]; TOM-grown P5 organoids switched to MIM with TGFβ 10 ng/ml): further upregulated

B1: Noggin (protein, UniProt Q13253 28-232, looked up)
Noggin: QHYLHIRPAPSDNLPLVDLIEHPDPIFDPKEKDLNETLLRSLLGGHYDPGFMATSPPEDRPGGGGGAAGGAEDLAELDQLLRQRPSGAMPSEIKGLEFSEGLAQGKKQRLSKKLRRKLQMWLWSQTFCPVLYAWNDLGSRFWPRYVKVGSCFSKRSCSVPEGMVCKPSKSVHLTVLRWRCQRRGGQRCGWIPIQYPIISECKCSC
need of the factor for efficient organoid formation [3]: needed for efficient organoid formation

B2: FGF10 (protein, UniProt O15520 38-208, looked up)
Fibroblast growth factor 10: QALGQDMVSPEATNSSSSSFSSPSSAGRHVRSYNHLQGDVRWRKLFSFTKYFLKIEKNGKVSGTKKENCPYSILEITSVEIGVVAVKAINSNYYLAMNKKGKLYGSKEFNNDCKLKERIEENGYNTYASFNWQHNGRQMYVALNGKGAPRRGQKTRRKNTSAHFLPMVVHS
notes: fibroblast growth factor
need of the factor for efficient organoid formation [3]: needed for efficient organoid formation

B3: R-spondin 1 (protein, UniProt Q2MKA7 21-263, looked up)
R-spondin-1: SRGIKGKRQRRISAEGSQACAKGCELCSEVNGCLKCSPKLFILLERNDIRQVGVCLPSCPPGYFDARNPDMNKCIKCKIEHCEACFSHNFCTKCKEGLYLHKGRCYPACPEGSSAANGTMECSSPAQCEMSEWSPWGPCSKKQQLCGFRRGSEERTRRVLHAPVGDHAACSDTKETRRCTVRRVPCPEGQKRRKGGQGRRENANRNLARKESKEAGAGSRRRKGQQQQQQQGTVGPLTSAGPA
need of the factor for efficient organoid formation [3]: needed for efficient organoid formation

B4: FGF8 (protein, UniProt P55075 23-233, looked up)
Fibroblast growth factor 8: QEGPGRGPALGRELASLFRAGREPQGVSQQHVREQSLVTDQLSRRLIRTYQLYSRTSGKHVQVLANKRINAMAEDGDPFAKLIVETDTFGSRVRVRGAETGLYICMNKKGKLIAKSNGKGKDCVFTEIVLENNYTALQNAKYEGWYMAFTRKGRPRKGSKTRQHQREVHFMKRLPRGHHTTEQSLRFEFLNYPPFTRSLRGSQRTWAPEPR
notes: fibroblast growth factor
need of the factor for efficient organoid formation [3]: needed for efficient organoid formation
